Source: article PMC9046087, “Structural basis of tethered agonism of the adhesion GPCRs ADGRD1 and ADGRF1” (Nature, 2022)
Where a chain is given by its changes, count along the chain named. Ends that are not written are not given here.

Columns and labels:
Experiment in all cases: BRET assay using TRUPATH biosensors, Gs activation of ADGRF1
Assay type in all cases: cell-based
ADGRF1 [1] = target: T1, ADGRF1 (Homo sapiens, UniProt Q5T601, F690A); conditions: Gs, ADGRF1 F690^ICL2A, n = 3
T1 construct: Flag (N); expressed in transfected cells; host or cells: HEK293F
T1 sequence (Q5T601 20-910 F690A): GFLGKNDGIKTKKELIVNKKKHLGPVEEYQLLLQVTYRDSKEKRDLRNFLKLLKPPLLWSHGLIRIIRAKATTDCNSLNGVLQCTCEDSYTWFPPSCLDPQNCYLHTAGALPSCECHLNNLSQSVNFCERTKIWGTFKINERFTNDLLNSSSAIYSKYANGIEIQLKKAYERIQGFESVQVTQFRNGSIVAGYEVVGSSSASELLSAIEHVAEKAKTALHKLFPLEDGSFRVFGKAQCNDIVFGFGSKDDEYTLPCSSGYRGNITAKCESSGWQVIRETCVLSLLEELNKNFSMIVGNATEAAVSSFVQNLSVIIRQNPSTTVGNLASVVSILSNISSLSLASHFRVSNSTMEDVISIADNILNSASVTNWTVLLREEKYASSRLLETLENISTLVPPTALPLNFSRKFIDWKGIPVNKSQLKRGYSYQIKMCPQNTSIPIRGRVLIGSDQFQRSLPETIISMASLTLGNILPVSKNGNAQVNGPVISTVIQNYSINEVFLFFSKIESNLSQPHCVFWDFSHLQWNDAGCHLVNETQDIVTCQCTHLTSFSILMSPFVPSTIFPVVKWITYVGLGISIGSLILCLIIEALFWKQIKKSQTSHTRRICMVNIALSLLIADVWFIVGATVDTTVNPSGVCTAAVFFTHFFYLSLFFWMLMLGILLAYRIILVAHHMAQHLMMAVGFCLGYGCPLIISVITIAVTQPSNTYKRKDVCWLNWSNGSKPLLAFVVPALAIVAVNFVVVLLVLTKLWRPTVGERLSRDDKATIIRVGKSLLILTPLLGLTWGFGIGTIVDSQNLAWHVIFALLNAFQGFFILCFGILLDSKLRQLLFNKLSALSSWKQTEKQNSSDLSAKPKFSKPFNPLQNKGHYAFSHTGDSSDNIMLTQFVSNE
Experimental: (§1) To study the synthetic stalk peptide-induced G protein activation of ADGRD1 and ADGRF1, a BRET assay using TRUPATH biosensors was conducted to measure the proximal interaction between RLuc8 fused to the Gα subunit and GFP2 fused to the Gγ subunit. The TRUPATH suite of biosensors was obtained from Addgene (Addgene kit no. 1000000163) as a gift from B. Roth, including GαsS-RLuc8, Gαi1-RLuc8, Gβ3 and Gγ9-GFP2 as previously described.
(§2) The wild-type or mutant ADGRD1 and ADGRF1 were transiently co-transfected with plasmids encoding Gα-RLuc8 (GαsS-RLuc8 for Gs activation assay; Gαi1-RLuc8 for Gi activation assay), Gβ3 and Gγ9-GFP2 at a ratio of 2:1:1:1 (receptor plasmid, 800 ng; G protein subunit plasmids, 400 ng for each) in 2 ml HEK293F cells at a density of 1.2 × 10^6 cells per ml. Cell cultivation and receptor surface expression measurement were performed as described above. The cells were plated into 96-well white plates (40,000 cells per well) in 60 μl of assay buffer and incubated at 37 °C for 30 min. Then 10 μl of freshly prepared 50 μM coelenterazine 400a (Nanolight Technologies) was added. […] The cells were stimulated with 30 μl of synthetic stalk peptide at different concentrations and the BRET signals were monitored continuously five times. The last measurements were used in data analysis. The BRET ratios were calculated as the ratio of the GFP2 emission to RLuc8 emission.

ADGRF1 [2] = target: T2, ADGRF1 (Homo sapiens, UniProt Q5T601, L769A)
T2 construct: Flag (N); expressed in transfected cells; host or cells: HEK293F
T2 sequence (Q5T601 20-910 L769A): T1 sequence (Q5T601 20-910 F690A) with A671F, L750A
Experimental: as §1, §2

ADGRF1 [3] = target: T3, ADGRF1 (Homo sapiens, UniProt Q5T601, R788A); conditions: Gs, ADGRF1 R788^6.37bA, n = 3
T3 construct: Flag (N); expressed in transfected cells; host or cells: HEK293F
T3 sequence (Q5T601 20-910 R788A): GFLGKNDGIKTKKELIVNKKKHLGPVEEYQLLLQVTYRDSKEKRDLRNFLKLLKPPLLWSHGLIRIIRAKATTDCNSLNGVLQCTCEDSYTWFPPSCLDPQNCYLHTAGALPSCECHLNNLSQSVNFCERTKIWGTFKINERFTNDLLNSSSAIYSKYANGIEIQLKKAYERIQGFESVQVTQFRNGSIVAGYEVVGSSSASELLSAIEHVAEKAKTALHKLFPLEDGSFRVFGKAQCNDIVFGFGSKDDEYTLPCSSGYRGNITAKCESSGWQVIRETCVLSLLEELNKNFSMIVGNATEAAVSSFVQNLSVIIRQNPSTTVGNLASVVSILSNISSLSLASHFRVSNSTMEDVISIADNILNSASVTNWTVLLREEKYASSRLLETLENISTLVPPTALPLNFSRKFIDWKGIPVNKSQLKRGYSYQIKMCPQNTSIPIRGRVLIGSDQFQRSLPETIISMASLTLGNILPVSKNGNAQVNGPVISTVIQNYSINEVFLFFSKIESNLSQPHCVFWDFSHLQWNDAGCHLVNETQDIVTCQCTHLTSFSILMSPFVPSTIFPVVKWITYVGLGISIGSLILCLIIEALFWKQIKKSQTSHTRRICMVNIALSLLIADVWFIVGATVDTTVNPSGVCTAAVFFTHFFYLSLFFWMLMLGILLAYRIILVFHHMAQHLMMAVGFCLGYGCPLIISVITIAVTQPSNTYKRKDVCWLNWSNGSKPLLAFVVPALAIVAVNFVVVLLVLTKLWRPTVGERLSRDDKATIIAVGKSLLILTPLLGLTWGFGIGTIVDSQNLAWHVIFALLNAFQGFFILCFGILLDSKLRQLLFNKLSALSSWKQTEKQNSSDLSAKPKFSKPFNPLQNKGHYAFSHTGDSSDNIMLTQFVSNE
Experimental: as §1, §2

[4] = read-out: pEC50 (mean ± s.e.m.) (converted)

For TSFSILMSPFVP [pF1], the “Emax (mean ± s.e.m.)” value (ADGRF1 [1]) was 110 ± 12 % of WT, the EC50 (ADGRF1 [1]; [4]) was 0.115 µM and the “Emax (mean ± s.e.m.)” value (ADGRF1 [2]; Gs, ADGRF1 L769^5.61bA, n = 3) was 73 ± 11 % of WT. The EC50 (ADGRF1 [2]; [4]) was 0.151 µM, the “Emax (mean ± s.e.m.)” value (ADGRF1 [3]) was 112 ± 15 % of WT and the EC50 (ADGRF1 [3]; [4]) was 0.933 µM.
